Results taken from patent US20250109151A1, “SILYL-LIPID N-ACYL L-HOMOSERINE LACTONES AS QUORUM SENSING MOLECULES” (The Regents of the University of California, priority 2022, published 2025).

Key:
[1] = target: T1, LasR (Pseudomonas aeruginosa, UniProt P25084); assay: cell-based; settings: for Emax: read-out: Maximum Activation (%); for designation of the sample in the LasR agonism table: words in brackets after the sample code
T1 construct: expressed in transfected cells; host or cells: E. coli (reporter strain)
T1 sequence (P25084 whole entry): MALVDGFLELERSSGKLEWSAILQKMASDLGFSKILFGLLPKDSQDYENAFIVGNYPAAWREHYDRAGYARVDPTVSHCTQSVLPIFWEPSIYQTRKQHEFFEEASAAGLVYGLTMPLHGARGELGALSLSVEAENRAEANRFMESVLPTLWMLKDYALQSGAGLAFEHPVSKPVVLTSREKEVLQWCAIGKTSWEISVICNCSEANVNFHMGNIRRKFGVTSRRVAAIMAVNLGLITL
Procedure: 15 compounds were assayed for LasR agonism using a beta-glo reporter assay in E. coli.

[2] = cited from earlier work
[3] = test system: TNF-α release; settings: LPS-induced model, at 30 min; cited from earlier work
[4] = target: T1, LasR; assay: LasR antagonism assay; format: cell-based; settings: for Emax: read-out: Maximum Activation (%)
Procedure: 3 compounds were assayed for LasR antagonism.
The IC50, […], and Max Activation for each sample is reported below.

`CCCCCCCC[Si](C)(C)CCCCC(=O)N[C@H]1CCOC1=O` [KMM 5-55-2, (S)-5-(dimethyl(octyl)silyl)-N-(2-oxotetrahydrofuran-3-yl)pentanamide] gave an Emax [1] of 101%.
For `CCCC[Si](C)(C)CCCCCCC(=O)N[C@H]1CCOC1=O` [LSD 1-35, (S)-7-(butyldimethylsilyl)-N-(2-oxotetrahydrofuran-3-yl)heptanamide], the Emax [1] was 90.4%.
For `O=C(O)[C@@H]1CCCN1C(=O)OCC1c2ccccc2-c2ccccc21` [Fmoc-Pro], the “Log P” value [2] is given as 0.094.
In the case of `C[Si]1(C)CC(C(=O)O)N(C(=O)OCC2c3ccccc3-c3ccccc32)C1` (stereo not drawn) [Fmoc-Sip], the “Log P” value [2] is listed as 1.3.
For `Cc1ccc(-n2nc(C(C)(C)C)cc2NC(=O)Nc2ccc(OCCN3CCOCC3)c3ccccc23)cc1` [BIRB-796], the TNF-α suppression [3] is listed as 41%.
With `CCCC[Si](C)(C)c1ccc(CC(=O)N[C@H]2CCOC2=O)cc1` [LSD 137, (S)-2-(4-(butyldimethylsilyl)phenyl)-N-(2-oxotetrahydrofuran-3-yl)acetamide] the IC50 [4] was 9.3 µM, the Emax [4] was 101% and the Emax [1] was 14.1%. For the same compound, the “designation of the sample in the LasR agonism table” value (“designation of the sample” below) [1] was “LSD 137 (antagonist)”.
With `C[Si](C)(C)O[Si](C)(C)CCCCC(=O)N[C@H]1CCOC1=O` [LSD 2-120, (S)-N-(2-oxotetrahydrofuran-3-yl)-5-(1,1,3,3,3-pentamethyldisiloxaneyl)pentanamide] the Emax [1] was 94%.
Compound `CC[Si](CC)(CC)CCCCC(=O)CC(=O)N[C@H]1CCOC1=O` [LSD-92, (S)-3-oxo-N-(2-oxotetrahydrofuran-3-yl)-7-(triethylsilyl)heptanamide] has an Emax [1] of 86%.
With `CCCCCCCC[Si](C)(C)CCCCCCC(=O)N[C@H]1CCOC1=O` [LSD 1-59, (S)-7-(dimethyl(octyl)silyl)-N-(2-oxotetrahydrofuran-3-yl)heptanamide] the Emax [1] was 25% and the “designation of the sample” value [1] was “LSD 1-59 (inactive)”.
With `CCCC[Si](C)(C)CCCCC(=O)N[C@H]1CCOC1=O` [LSD 1-34, (S)-5-(butyldimethylsilyl)-N-(2-oxotetrahydrofuran-3-yl)pentanamide] the Emax [1] was 101%.
For `CC[Si](CC)(CC)CCCCC(=O)N[C@H]1CCOC1=O` [KMM 5-56-2, (S)-N-(2-oxotetrahydrofuran-3-yl)-5-(triethylsilyl)pentanamide], the Emax [1] was 94.3%.
Work on `CCCC[Si](CCCC)(CCCC)CCCCC(=O)N[C@H]1CCOC1=O` [LSD 2-65, (S)-N-(2-oxotetrahydrofuran-3-yl)-5-(tributylsilyl)pentanamide] yielded an Emax [1] of 79.8%.
For `C[Si](C)(c1ccccc1)c1ccc(CC(=O)N[C@H]2CCOC2=O)cc1` [LSD 133, (S)-2-(4-(dimethyl(phenyl)silyl)phenyl)-N-(2-oxotetrahydrofuran-3-yl)acetamide], the IC50 [4] was 14.6 µM, the Emax [4] was 97.2% and the EC50 [1] was 0.015 µM. For the same compound, the Emax [1] was 9% and the “designation of the sample” value [1] was “LSD 133 (antagonist)”.
Compound `C[Si](C)(CCCCC(=O)N[C@H]1CCOC1=O)c1ccccc1` [LSD 1-32, (S)-5-(dimethyl(phenyl)silyl)-N-(2-oxotetrahydrofuran-3-yl)pentanamide] has an Emax [1] of 96.1%.
In the case of `C[Si](C)(CCCCCCC(=O)N[C@H]1CCOC1=O)c1ccccc1` [LSD 2-47, (S)-7-(dimethyl(phenyl)silyl)-N-(2-oxotetrahydrofuran-3-yl)heptanamide], the Emax [1] is reported as 99.7%.
In the case of `C[Si](C)(CCCCC(=O)CC(=O)N[C@H]1CCOC1=O)c1ccccc1` [LSD 2-113, (S)-7-(dimethyl(phenyl)silyl)-3-oxo-N-(2-oxotetrahydrofuran-3-yl)heptanamide], the Emax [1] is reported as 106%.
